{"source": "patent US12281123B2", "about": "“Benzoxazinone compounds as KLK5/7 dual inhibitors” (MOLECULAR SKIN THERAPEUTICS, INC., priority 2019, dated 2025)", "type_in_all_cases": "biochemical", "key": {"proteases": {"test_system": "proteases", "assay": "Chromogenic assay, protease panel (conclusion)", "details": "conclusion from Table 3, all proteases tested", "experimental": "(§1) Assays: All assays were performed in 384 well polystyrene plates coated overnight with 0.1% Tween 20 at 4° C. The plates were then washed twice with 100 μL water and dried. For the determination of IC50 values, the inhibitors were diluted in serial dilutions of 1:3 intervals into pure DMSO at 50 fold of the intended final concentrations in the assays. Usually eight inhibitor dilutions and one DMSO control were prepared. The substrates were diluted into water at 2.2-fold the final concentration in the assay mixture. The wells of the plate were filled with 50 μL of the enzyme diluted in 2× assay buffer (100 mM Tris, 200 mM NaCl, 0.2% PEG, 0.01% Tween, 2 mM EDTA, pH 8.0) at twofold the intended concentration. Then 5 μL DMSO, 2.2 μL inhibitor and 45 μL substrate were added to start the reaction. The assays were monitored at 37° C. in a multi well plate reader at a wavelength of 405 nm (Molecular Devices, San Jose, CA) for 1 h. The tool inhibitor, nafamostat, was used as a control for trypsin, thrombin, KLK-5 and KLK-14 at 10 μM maximal concentration and (2-(2-fluorophenyl)-5,6,7,8-tetrahydro-4H-benzo[4,5]thieno[2,3-d][1,3]oxazin-4-one for KLK-7 at 5 μM. […]"}, "Thrombin": {"target": "T1, Thrombin (Homo sapiens, UniProt P00734)", "T1 construct": "purchased Haematologic Technologies (Essex Junction, VT)", "assay": "Chromogenic assay, thrombin", "details": "Thrombin 0.5 nM; S-2288 500 μM; highest conc. of 1.001 100 μM", "excerpt": "Human Kallikrein Proteins: Recombinant human KLK5 expressed in HEK293 was obtained from SpeedBio (Gaithersburg, MD). Recombinant proenzyme KLK-7 and recombinant proenzyme KLK-14 both expressed in mouse myeloma cells were from R&D Biosystems (Minneapolis, MN). Plasmin and thrombin were from Haematologic Technologies (Essex Junction, VT). Trypsin and Chymotrypsin were bought from Worthington Biochemical Corporation (Lakewood, NJ) and plasma kallikrein was from Prospec (East Brunswick, NJ). Neutrophil Elastase was obtained from Innovative Research (Peary Court, MI). Bovine recombinant enterokinase expressed in E. coli was bought from Sigma (St. Louis, MI). Matriptase expressed in E. coli was obtained from Enzo Life Sciences (Farmingdale, NY). The control inhibitors Nafamostat mesylate was from Sigma (St. Louis, MI) and (2-(2-fluorophenyl)-5,6,7,8-tetrahydro-4H-benzo[4,5]thieno[2,3-d][1,3]oxazin-4-one was from Interbioscreen (Moskow, Russia). […]\nAssays: All assays were performed in 384 well polystyrene plates coated overnight with 0.1% Tween 20 at 4° C. […] The assays were monitored at 37° C. in a multi well plate reader at a wavelength of 405 nm (Molecular Devices, San Jose, CA) for 1 h. […]\n(§2) Data analysis: The progress curves of substrate hydrolysis were analyzed by linear regression of the final 20 min of the reaction. […]"}, "Chymotrypsin": {"target": "Chymotrypsin (Bos taurus, UniProt P00766)", "assay": "Chromogenic assay, chymotrypsin", "excerpt": "(§3) Human Kallikrein Proteins: Recombinant human KLK5 expressed in HEK293 was obtained from SpeedBio (Gaithersburg, MD). Recombinant proenzyme KLK-7 and recombinant proenzyme KLK-14 both expressed in mouse myeloma cells were from R&D Biosystems (Minneapolis, MN). Plasmin and thrombin were from Haematologic Technologies (Essex Junction, VT). Trypsin and Chymotrypsin were bought from Worthington Biochemical Corporation (Lakewood, NJ) and plasma kallikrein was from Prospec (East Brunswick, NJ). Neutrophil Elastase was obtained from Innovative Research (Peary Court, MI). Bovine recombinant enterokinase expressed in E. coli was bought from Sigma (St. Louis, MI). Matriptase expressed in E. coli was obtained from Enzo Life Sciences (Farmingdale, NY). The control inhibitors Nafamostat mesylate was from Sigma (St. Louis, MI) and (2-(2-fluorophenyl)-5,6,7,8-tetrahydro-4H-benzo[4,5]thieno[2,3-d][1,3]oxazin-4-one was from Interbioscreen (Moskow, Russia).\n(§4) Substrates: S-2288 (D-Ile-Pro-Arg-pNA), CS-PSA (MeO-Suc-Arg-Pro-Tyr-pNA), S-2266 (H-D-Val-Leu-Arg-pNA) and S-2288 (H-D-Ile-Pro-Arg-pNA) were bought from Diapharma (West Chester, OH). MeOSuccAla-Ala-Pro-Val-pNA was purchased from Sigma (St Louis, MI). The substrates were dissolved in water at 10 mM and were frozen in aliquots at −20° C.\nAssays: All assays were performed in 384 well polystyrene plates coated overnight with 0.1% Tween 20 at 4° C. The plates were then washed twice with 100 μL water and dried. For the determination of IC50 values, the inhibitors were diluted in serial dilutions of 1:3 intervals into pure DMSO at 50 fold of the intended final concentrations in the assays. Usually eight inhibitor dilutions and one DMSO control were prepared. The substrates were diluted into water at 2.2-fold the final concentration in the assay mixture. […] The assays were monitored at 37° C. in a multi well plate reader at a wavelength of 405 nm (Molecular Devices, San Jose, CA) for 1 h. […]\nas §2"}, "KLK14": {"target": "T2, KLK14 (Homo sapiens, UniProt Q9P0G3)", "T2 construct": "purchased R&D Biosystems (Minneapolis, MN) / R&Dsystems; host or cells: mouse myeloma cells", "T2 sequence (Q9P0G3 25-251)": "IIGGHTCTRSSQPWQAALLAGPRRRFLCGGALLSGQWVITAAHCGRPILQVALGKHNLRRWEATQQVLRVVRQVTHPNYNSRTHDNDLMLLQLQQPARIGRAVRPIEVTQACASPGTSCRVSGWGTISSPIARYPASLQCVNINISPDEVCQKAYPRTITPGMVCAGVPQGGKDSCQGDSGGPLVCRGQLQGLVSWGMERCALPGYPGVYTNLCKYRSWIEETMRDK", "assay": "Chromogenic assay, KLK14", "details": "S-2288 500 μM, highest conc. of 1.001 50 μM", "excerpt": "as §3, §4\nActivation of KLK-7 and KLK-14: 150 μL 8 μM solution of the proenzymes of KLK-7 or KLK-14 in 50 mM Tris, 10 mM CaCl2, 150 mM NaCl, 0.05% (w/v) Brij-35, pH 7.5 were mixed with 150 μL 10 μg/mL bovine enterokinase in the same buffer and incubated for 2 h for KLK-7 and 1 h for KLK-14 at 37° C. After the incubation period, activation was stopped by addition of 6 μL 0.5 M EDTA pH 8.0.\nAssays: All assays were performed in 384 well polystyrene plates coated overnight with 0.1% Tween 20 at 4° C. The plates were then washed twice with 100 μL water and dried. […] The assays were monitored at 37° C. in a multi well plate reader at a wavelength of 405 nm (Molecular Devices, San Jose, CA) for 1 h. […]\nas §2"}, "Factor Xa": {"target": "T3, Factor Xa (Homo sapiens, UniProt P00742)", "T3 construct": "purchased Haematologic Technologies", "T3 sequence (P00742 235-488 limits assumed)": "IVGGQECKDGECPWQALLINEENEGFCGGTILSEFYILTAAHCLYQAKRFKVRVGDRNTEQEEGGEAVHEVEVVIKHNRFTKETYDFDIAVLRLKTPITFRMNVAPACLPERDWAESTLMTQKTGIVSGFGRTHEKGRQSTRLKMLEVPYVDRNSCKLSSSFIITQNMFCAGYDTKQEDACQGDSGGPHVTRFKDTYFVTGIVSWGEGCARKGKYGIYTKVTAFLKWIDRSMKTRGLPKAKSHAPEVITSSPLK", "T3 sequence (P00742 41-179 partner limits assumed)": "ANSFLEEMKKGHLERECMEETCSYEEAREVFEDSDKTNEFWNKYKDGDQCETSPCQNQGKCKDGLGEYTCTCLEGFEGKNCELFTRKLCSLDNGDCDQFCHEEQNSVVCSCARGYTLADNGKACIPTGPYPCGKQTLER", "assay": "Chromogenic assay, Factor Xa", "details": "Factor Xa 0.5 nM; S-2288 500 μM; highest conc. of 1.001 20 μM", "experimental": "Assays: All assays were performed in 384 well polystyrene plates coated overnight with 0.1% Tween 20 at 4° C. The plates were then washed twice with 100 μL water and dried. For the determination of IC50 values, the inhibitors were diluted in serial dilutions of 1:3 intervals into pure DMSO at 50 fold of the intended final concentrations in the assays. Usually eight inhibitor dilutions and one DMSO control were prepared. The substrates were diluted into water at 2.2-fold the final concentration in the assay mixture. The wells of the plate were filled with 50 μL of the enzyme diluted in 2× assay buffer (100 mM Tris, 200 mM NaCl, 0.2% PEG, 0.01% Tween, 2 mM EDTA, pH 8.0) at twofold the intended concentration. Then 5 μL DMSO, 2.2 μL inhibitor and 45 μL substrate were added to start the reaction. The assays were monitored at 37° C. in a multi well plate reader at a wavelength of 405 nm (Molecular Devices, San Jose, CA) for 1 h. The tool inhibitor, nafamostat, was used as a control for trypsin, thrombin, KLK-5 and KLK-14 at 10 μM maximal concentration and (2-(2-fluorophenyl)-5,6,7,8-tetrahydro-4H-benzo[4,5]thieno[2,3-d][1,3]oxazin-4-one for KLK-7 at 5 μM.\nData analysis: The progress curves of substrate hydrolysis were analyzed by linear regression of the final 20 min of the reaction. Fit of the dose response of the resulting rates to the following equation yielded the IC50: […]"}, "KLK1": {"target": "T4, KLK1 (Homo sapiens, UniProt P06870)", "T4 construct": "purchased Prospec", "T4 sequence (P06870 25-262)": "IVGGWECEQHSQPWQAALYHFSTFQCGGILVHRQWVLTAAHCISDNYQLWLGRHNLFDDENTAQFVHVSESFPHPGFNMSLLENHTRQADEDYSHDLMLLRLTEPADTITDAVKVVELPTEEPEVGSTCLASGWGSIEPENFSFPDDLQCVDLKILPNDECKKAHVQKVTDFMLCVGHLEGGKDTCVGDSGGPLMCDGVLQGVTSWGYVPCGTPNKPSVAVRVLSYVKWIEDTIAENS", "assay": "Chromogenic assay, KLK1", "details": "KLK1 10 nM; S-2266 200 μM; highest conc. of 1.001 50 μM", "experimental": "as §4\nas §1, with “h.” for “h. The tool inhibitor, nafamostat, was used as a control for trypsin, thrombin, KLK-5 and KLK-14 at 10 μM maximal concentration and (2-(2-fluorophenyl)-5,6,7,8-tetrahydro-4H-benzo[4,5]thieno[2,3-d][1,3]oxazin-4-one for KLK-7 at 5 μM.”\nas §2"}, "[1]": {"details": "Chymotrypsin 0.2 nM, CS-PSA 500 μM, highest conc. of 1.001 50 μM"}}, "note": "“And” between values parts separate entries of the source, which are not always exact repeats. Equal values may be shown once."}
{"smiles": "CS(=O)(=O)c1cc(CO)ccc1C(=O)Nc1cc2c(cc1C(=O)O)OCCO2", "note": "[Compound 408, reference compound]", "values": [{"measurement": "Inhibition of proteases, conclusion in words", "setting": "proteases", "result": "unable to inhibit proteases"}, {"measurement": "IC50 (μM), Thrombin", "setting": "Thrombin", "result": "No inhibition"}, {"measurement": "IC50 (μM), Chymotrypsin", "setting": "Chymotrypsin; [1]", "result": "No inhibition"}, {"measurement": "IC50 (μM), KLK14", "setting": "KLK14; KLK14 5 nM", "result": "No inhibition"}, {"measurement": "IC50 (μM), Factor Xa", "setting": "Factor Xa", "result": "No inhibition"}, {"measurement": "IC50 (μM), KLK1", "setting": "KLK1", "result": "No inhibition"}]}
{"smiles": "CS(=O)(=O)c1cc(CO)ccc1-c1nc2cc3c(cc2c(=O)o1)OCCO3", "note": "[Compound 1.001, 2-(4-(Hydroxymethyl)-2-(methylsulfonyl)phenyl)-7,8-dihydro-4H-[1,4]dioxino[2′,3′:4,5]benzo[1,2-d][1,3]oxazin-4-one]", "values": [{"measurement": "IC50", "setting": "Thrombin", "result": "> 10", "unit": "µM"}, {"measurement": "IC50", "setting": "Chymotrypsin; [1]", "result": "0.249 µM and 0.317 µM"}, {"measurement": "Inhibition of Chymotrypsin, conclusion in words", "setting": "Chymotrypsin; conclusion from Table 3", "result": "inhibitor"}, {"measurement": "IC50", "setting": "KLK14; KLK14 1 nM", "result": 0.442, "unit": "µM"}, {"measurement": "IC50", "setting": "KLK14; KLK14 5 nM", "result": 0.633, "unit": "µM"}, {"measurement": "IC50", "setting": "Factor Xa", "result": "3.22 µM and 10.4 µM and 3.94 µM"}, {"measurement": "IC50 (μM), KLK1", "setting": "KLK1", "result": "No inhibition"}]}
